Laboratory results from patent US7202068B2, “Enone reductase and methods of making and using thereof” (priority 2002, dated 2007).
Like-named read-outs stand apart in the source and are kept apart here.

Experiments:
Assay type in all cases: biochemical, Candida kefyr (Candida macedoniensis) IFO 0960
enone reductase [1] = assay: Effect of metal ions and other compounds on the enzyme activity
enone reductase [2] = assay: Cofactor requirement of the enzyme to convert ketoisophorone to levodione
Description: (§1) The standard enzyme assay was performed as follows: a total volume of 1 ml of the basal reaction mixture (200 μl of 1 M Tris-HCl buffer pH 7.5, 100 μl of 80 mM NADH or NADPH, 100 μl of 0.658 M ketoisophorone, 600 μl H2O) was supplemented by 5 μl of the enzyme solution and incubated at 40° C. One unit of the enzyme activity was defined as the amount of the enzyme, which catalyzes the […] of 1 μmol of ketoisophorone per minute. The reaction mixture was extracted by 1 ml of ethylacetate to recover the levodione into the ethylacetate layer. The extract was analyzed by gas chromatography [column: ULBON HR-20M (Shinwa, Japan) 0.25 mmφ×30 m, column temperature: 160° C. (constant), injector temperature: 250° C., carrier gas: He (ca. 1 ml/min)]. The protein concentration was determined by using a Bio-Rad protein assay kit (Bio-Rad, USA).
The cofactor requirement of the enzyme to convert ketoisophorone to levodione was investigated.

enone reductase [3] = assay: Substrate specificity of the enone reductase (standard enzyme assay with various substrates); settings: 0.05% final concentration, 30° C.; for Relative Activity (%): as substrate, ketoisophorone = 100
Description: as §1
Substrate specificity of the enzyme was determined by using the same enzyme assay method as described above under (1), except that various substrate solutions (0.05% final concentration in the reaction mixture) were used instead of ketoisophorone, and the reaction was done at 30° C. The relative activity (%) of different substrates is compared in Table 1, showing the best result with 3-butene-2-one.

[4] = compound added, final concentration of metal 1 mM, substrate 2-cyclohexen-1-one, None = 100
[5] = final concentration of metal 1 mM, substrate 2-cyclohexen-1-one

Molecule: O=[N+]([O-])[O-].[Ag+] [AgNO3]
- Relative Activity (%) (enone reductase [1]): 49.1%
- inhibition of the enzyme activity (in words) (enone reductase [1]): inhibited the enzyme activity moderately

Molecule: [Cl-].[Rb+] [RbCl]
- Relative Activity (%) (enone reductase [1]): 107%

Molecule: [F-].[Na+] [NaF]
- Relative Activity (%) (enone reductase [1]): 101%

Molecule: O=S(=O)([O-])[O-].[Zn+2] [ZnSO4]
- Relative Activity (%) (enone reductase [1]): 101%

Molecule: O=S(=O)([O-])[O-].[Cu+2] [CuSO4]
- Relative Activity (%) (enone reductase [1]): 55.9%
- inhibition of the enzyme activity (in words) (enone reductase [1]): inhibited the enzyme activity moderately

Molecule: NC(=O)C1=CN([C@@H]2O[C@H](COP(=O)(O)OP(=O)(O)OC[C@H]3O[C@@H](n4cnc5c(N)ncnc54)[C@H](O)[C@@H]3O)[C@@H](O)[C@H]2O)C=CC1 [NADH]
- serves as co-factor for the reductive reaction (enone reductase [2]): could serve as a co-factor

Molecule: [Cl][Ni][Cl] [NiCl]
- Relative Activity (%) (enone reductase [1]): 108%

Molecule: [Cl][Hg][Cl] [HgCl2]
- Relative Activity (%) (enone reductase [1]; [4]): 40.8%
- inhibition of the enzyme activity (in words) (enone reductase [1]; [5]): inhibited the enzyme activity moderately

Molecule: O=S(=O)([O-])[O-].[Be+2] [BeSO4]
- Relative Activity (%) (enone reductase [1]): 80.9%

Molecule: O=C1C=CCCC1 [2-Cyclohexen-1-one]
- Relative Activity (%) (enone reductase [3]): 252.1%

Molecule: C=CC(C)=O [3-Butene-2-one]
- relative activity of different substrates (in words) (enone reductase [3]): best result
- Relative Activity (%) (enone reductase [3]): 403.3%

Molecule: O=C(O)CI [Iodoacetate]
- Relative Activity (%) (enone reductase [1]): 93.6%

Molecule: CoCl2
- Relative Activity (%) (enone reductase [1]): 113%

Molecule: CC1=CC(=O)CC(C)(C)C1=O [Ketoisophorone, 2,6,6-trimethyl-2-cyclohexene-1,4-dione]
- Relative Activity (%) (enone reductase [3]): 100%

Molecule: O=C(O)CN(CCN(CC(=O)O)CC(=O)O)CC(=O)O [EDTA]
- Relative Activity (%) (enone reductase [1]): 110%

Molecule: O=[N+]([O-])C1=CCCCC1 [1-Nitro-1-cyclohexen]
- Relative Activity (%) (enone reductase [3]): 373.8%

Molecule: [Cl][Cd][Cl] [CdCl2]
- Relative Activity (%) (enone reductase [1]): 104%

Molecule: N=C(N)N [Guanidine]
- Relative Activity (%) (enone reductase [1]; [4]): 61.1%
- inhibition of the enzyme activity (in words) (enone reductase [1]; [5]): inhibited the enzyme activity moderately

Molecule: [Cl-].[Li+] [LiCl]
- Relative Activity (%) (enone reductase [1]; [4]): 104%

Molecule: NC(=O)C1=CN([C@@H]2O[C@H](COP(=O)(O)OP(=O)(O)OC[C@H]3O[C@@H](n4cnc5c(N)ncnc54)[C@H](OP(=O)(O)O)[C@@H]3O)[C@@H](O)[C@H]2O)C=CC1 [NADPH]
- serves as co-factor for the reductive reaction (enone reductase [2]): could serve as a co-factor

Molecule: [Ca+2].[Cl-].[Cl-] [CaCl2]
- Relative Activity (%) (enone reductase [1]): 108%

Molecule: R-(−)-Carvone
- Relative Activity (%) (enone reductase [3]): 56.3%

Molecule: [Cl-].[Cl-].[Mg+2] [MgCl2]
- Relative Activity (%) (enone reductase [1]): 111%

Molecule: N#C[S-].[Na+] [NaSCN]
- Relative Activity (%) (enone reductase [1]): 93.6%

Molecule: O=[N+]([O-])[O-].O=[N+]([O-])[O-].[Pb+2] [Pb(NO3)2]
- Relative Activity (%) (enone reductase [1]): 0%
- inhibition of the enzyme activity (in words) (enone reductase [1]): inhibited the enzyme activity strongly

Molecule: [Cl-].[Na+] [NaCl]
- Relative Activity (%) (enone reductase [1]): 108%

Molecule: [NH4+].[O]=[V](=[O])[O-] [NH4VO3]
- Relative Activity (%) (enone reductase [1]): 9.6%
- inhibition of the enzyme activity (in words) (enone reductase [1]): inhibited the enzyme activity moderately

Molecule: [Cl][Mn][Cl] [MnCl2]
- Relative Activity (%) (enone reductase [1]): 94.6%

Molecule: [Cl-].[K+] [KCl]
- Relative Activity (%) (enone reductase [1]): 103%

Molecule: O=CC=Cc1ccccc1 [Cinnamaldehyde]
- Relative Activity (%) (enone reductase [3]): 216.7%

Molecule: C[n+]1c2cc(N)ccc2cc2ccc(N)cc21.[Cl-] [Trypaflavine]
- Relative Activity (%) (enone reductase [1]): 0%
- inhibition of the enzyme activity (in words) (enone reductase [1]): inhibited the enzyme activity strongly
